Measured values reported in US8722910B2, “Diyne compositions” (Evolva AG, priority 2009, dated 2014).
In brackets after ≈: the same amount, converted by molar mass. Like-named read-outs stand apart in the source and are kept apart here. Numbered stars: 1 amine (or outer) side, 2 acyl side, 3 side chain; on linkers, the order of the positions; unused ones are H or OH. Bridge positions count the residues as written; N and C are the ends. Square brackets hold non-standard residues; d marks the D form. Peptide text beside a SMILES is read from it. * marks the point of attachment. Orn(4R-OH,5R-OH) = O=C([C@H](C[C@@H](O)[C@@H](O)N[*:3])N[*:1])[*:2]; hTyr(3S-OH,4S-OH) = N[C@H](C(=O)O)[C@H](O)[C@@H](O)c1ccc(O)cc1; Pro(3S-OH,4S-Me) = C[C@H]1CN[C@H](C(=O)O)[C@H]1O; Benzoyl(4-octyloxy) = CCCCCCCCOc1ccc(C(=O)*)cc1; Hyp = O=C(O)[C@@H]1C[C@@H](O)CN1

Experiments:
Chitin Synthase = assay: Inhibition of fungal cell wall synthesis enzymes; type: biochemical; conditions: 9.9 μg/ml
Text: (§1) Specific inhibitors of each enzyme served as positive controls (Cilofungin, a β-glucan synthase inhibitor and nikkomycin Z, a chitin synthase inhibitor).

Candida albicans = assay: In vitro fungicidal activity vs. Candida albicans; conditions: Candida albicans
M. cookie = assay: In vitro antifungal activity vs. dermatophytes (MIC/MFC); type: cell-based; conditions: 96 h; M. cookie (n = 1); 35° C., 4 days
M. gallinae = assay: as above; type: cell-based; conditions: 96 h; M. gallinae (n = 1); 35° C., 4 days
Trichophyton tonsurans = assay: as above; type: cell-based; conditions: 96 h; Trichophyton tonsurans (n = 15); 35° C., 4 days
M. gypseum = assay: as above; type: cell-based; conditions: Nannizzia gypsea, 96 h; M. gypseum (n = 1); 35° C., 4 days
M. vanbreuseghemii = assay: as above; type: cell-based; conditions: 96 h; M. vanbreuseghemii (n = 1); 35° C., 4 days
ergosterol biosynthesis = assay: 13C-acetate incorporation into ergosterol; type: cell-based, Candida albicans; conditions: drug at about its MIC, added after the first 15 minutes
T. mentagrophytes = assay: In vitro antifungal activity vs. dermatophytes (MIC/MFC); type: cell-based; conditions: Trichophyton mentagrophytes, 96 h; T. mentagrophytes (n = 15); 35° C., 4 days
Epidermophyton floccosum = assay: as above; type: cell-based; conditions: 96 h; Epidermophyton floccosum (n = 15); 35° C., 4 days
T. rubrum = assay: as above; type: cell-based; conditions: Trichophyton rubrum, 96 h; T. rubrum (n = 15); 35° C., 4 days
[1] = tested on: T. rubrum, Terbinafine resistant isolates; assay: as above; type: cell-based; conditions: Trichophyton rubrum, 96 h; T. rubrum (TERB-resistant) (n = 9); 35° C., 4 days
Microsporum canis = assay: as above; type: cell-based; conditions: 96 h; Microsporum canis (n = 15); 35° C., 4 days
T. terrestre = assay: as above; type: cell-based; conditions: 96 h; T. terrestre (n = 1); 35° C., 4 days
all dermatophyte strains = assay: MIC and MFC range over all dermatophyte strains tested; type: cell-based, dermatophytes; conditions: Table 14 strains
(1,3)β-Glucan Synthase = assay: Inhibition of fungal cell wall synthesis enzymes; type: biochemical; conditions: 20.6 μg/ml
Text: as §1

C. albicans SC5314 [2] = assay: MIC versus reference Candida strains (broth micro dilution); type: cell-based
C. tropicalis ATCC-750 = assay: as above; conditions: Candida tropicalis, ATCC750
C. albicans ATCC-90028 = assay: as above; conditions: Candida albicans, ATCC90028
[3] = tested on: C. parapsilosis ATCC-90018; assay: as above; conditions: Lodderomyces parapsilosis, ATCC90018
C. krusei ATCC-6258 = assay: as above; conditions: Pichia kudriavzevii, ATCC6258
[4] = tested on: C. parapsilosis ATCC-22019; assay: as above; conditions: Lodderomyces parapsilosis, ATCC22019
C. glabrata ATCC-90030 = assay: as above; conditions: Nakaseomyces glabratus, ATCC90030
C. albicans ATCC-24433 = assay: as above; conditions: Candida albicans, ATCC24433
S. cerevisiae 2229-5C = assay: IC50 (50% growth inhibition) of diyne compounds; type: cell-based; conditions: strain 2229-5C; for IC50: Saccharomyces cerevisiae, 22295C; for value in brackets after the IC50 bound (not explained): at the bound concentration
Method: (§2) The inhibition is partly measured by minimum inhibitory and minimum fungicidal concentration (MIC and MFC, respectively) and partly as IC50 (i.e. concentration required for 50% inhibition).
(§3) IC50 against two different S. cerevisiae strains and two different C. albicans strains by a number of diyne compounds was determined and the results are shown in Table 17.

S. cerevisiae AD1-9 = assay: IC50 (50% growth inhibition) of diyne compounds; type: cell-based; conditions: strain AD1-9; for IC50: Saccharomyces cerevisiae, AD19
Method: as §2, §3

C. albicans DSY1024 = assay: IC50 (50% growth inhibition) of diyne compounds; type: cell-based; conditions: Candida albicans, DSY1024, read-out: C. albicans IC50
Method: as §2, §3

C. albicans SC5314 [5] = assay: IC50 (50% growth inhibition) of diyne compounds; type: cell-based; conditions: Candida albicans; strain SC5314
Method: as §2, §3

OLE1 = OLE1 expression by real time PCR; type: cell-based, S. cerevisiae; conditions: 10 μg/ml oleic acid alone
Method: The expression of OLE1 was determined by real time PCR 10, 60, 120 and 240 min after compound addition (Knechtle, P. and Greve, K., 2009). OLE1 transcript levels were calibrated to the expression of the tubulin gene (TUB1) and normalized to the OLE1 expression at 10 min without compound addition (FIG. 17(a)).
The expression of the OLE1 gene was determined by real time PCR 10, 60, 120 and 240 min for the conditions a.-e., as indicated in Table 3 above. OLE1 transcript levels were calibrated to the expression of the tubulin gene (TUB1) and normalized to the OLE1 expression at 10 min without compound addition. See FIG. 17a showing time dependent expressions of OLE1 in response to compound IV″. Conditions a.-e. are listed in Table 3 above, numbers indicate time intervals in minutes. Expressions of OLE1 are given as multiples of the expression at 10 min, condition a. […] 10 μg/ml oleic acid compensated for the OLE1 expression increase caused by 1 μg/ml compound IV alone. Compound IV″ dependent up-regulation of OLE1 expression thus confirms that compound IV″ is acting as an inhibitor of the Ole1 protein. The antagonistic effect of oleic acid found in the susceptibility assays, is reflected mechanistically in this experiment by a down-regulation of the target Ole1 protein through oleic acid.

S. cerevisiae = assay: Doubling times of S. cerevisiae; type: cell-based; conditions: 10 μg/ml oleic acid alone
Method: S. cerevisiae was cultured in the presence of 1 and 10 μg/ml of the potassium salt, 10 μg/ml oleic acid and 1 μg/ml of the potassium salt combined with 10 μg/ml oleic acid.
When S. cerevisiae was cultured in the presence of 1 and 10 μg/ml compound IV″, the doubling times increased to 2.4 h and 4.2 h, respectively, compared to 2 h for the untreated control. The addition of 10 μg/ml oleic acid, sodium salt, to 1 μg/ml compound IV″ reversed the doubling time to 2 h as observed for the untreated control or 10 μg/ml oleic acid, sodium salt alone.

C[C@@H]([C@H](N)C(=O)N[C@H](C(=O)O)[C@H]1O[C@@H](n2ccc(=O)[nH]c2=O)[C@H](O)[C@@H]1O)[C@H](O)c1ccc(O)cn1 [Nikkomycin Z, reference compound]
% Inhibition, Chitin Synthase (Chitin Synthase): 61%

C[C@@H]1C[C@@H]([C@H](O)CC2CC(=O)NC(=O)C2)C(=O)[C@@H](C)C1 [Cycloheximide]
Fungicidal Concentration (Candida albicans): 12,800,000 ng/ml | MIC90 (Candida albicans; 24 h, read-out: MIC90 24 h): 1600 µg/mL (≈ 5690 µM) | MIC90 (Candida albicans; 48 h, read-out: MIC90 48 h): 12800 µg/mL (≈ 45500 µM)

CN(C/C=C/C#CC(C)(C)C)Cc1cccc2ccccc12 [Terbinafine, reference compound]
MIC (M. cookie): 8 ng/mL (≈ 0.0275 µM) | MIC (M. gallinae): 8 ng/mL (≈ 0.0275 µM) | MIC (Trichophyton tonsurans): 8 ng/mL (≈ 0.0275 µM) | MIC (M. gypseum): 4 ng/mL (≈ 0.0137 µM) | MIC (M. vanbreuseghemii): 0.015 µg/mL (≈ 0.0515 µM) | net biosynthesis of ergosterol (13C-acetate incorporation) (ergosterol biosynthesis): inhibited the incorporation of acetate into ergosterol | MIC (T. mentagrophytes): 8 ng/mL (≈ 0.0275 µM) | MIC (Epidermophyton floccosum): 0.015 µg/mL (≈ 0.0515 µM) | MIC (T. rubrum): 2 ng/mL (≈ 0.00686 µM) | MIC [1]: 4 µg/mL (≈ 13.7 µM) | MIC (Microsporum canis): 0.015 µg/mL (≈ 0.0515 µM) | MIC (T. terrestre): 8 ng/mL (≈ 0.0275 µM) | MIC range against all dermatophyte strains (all dermatophyte strains): 2 to 4000 ng/mL

CCCCCCCCOc1ccc(C(=O)N[C@H]2C[C@@H](O)[C@@H](O)NC(=O)[C@@H]3[C@@H](O)[C@@H](C)CN3C(=O)[C@H]([C@@H](C)O)NC(=O)[C@H]([C@H](O)[C@@H](O)c3ccc(O)cc3)NC(=O)[C@@H]3C[C@@H](O)CN3C(=O)[C@H]([C@@H](C)O)NC2=O)cc1 [Cilofungin, reference compound] ({Benzoyl(4-octyloxy)}-[Orn(4R-OH,5R-OH)]T[Hyp][hTyr(3S-OH,4S-OH)]T[Pro(3S-OH,4S-Me)]; lactam 1-C)
% Inhibition, (1,3)β-Glucan Synthase ((1,3)β-Glucan Synthase): 51%

O=C(O)CCCCCCCc1ccccc1C#CC#Cc1ccco1 [VII″, 8-(2-(4-(furan-2-yl)buta-1,3-diynyl)phenyl)octanoic acid]
MIC (C. albicans SC5314 [2]): > 10.2 µg/mL | MIC (C. tropicalis ATCC-750): > 10.2 µg/mL | MIC (C. albicans ATCC-90028): > 10.2 µg/mL | MIC [3]: > 10.2 µg/mL | MIC (C. krusei ATCC-6258): > 10.2 µg/mL | MIC [4]: > 10.2 µg/mL | MIC (C. glabrata ATCC-90030): > 10.2 µg/mL | MIC (C. albicans ATCC-24433): > 10.2 µg/mL

Nc1nc(=O)[nH]cc1F [5-fluorocytosine]
Fungicidal Concentration (Candida albicans): 1563 ng/mL | MIC90 (Candida albicans; 24 h, read-out: MIC90 24 h): 0.098 µg/mL (≈ 0.759 µM) | MIC90 (Candida albicans; 48 h, read-out: MIC90 48 h): 0.195 µg/mL (≈ 1.51 µM)

O=C(O)CCCCCCC/C=C/C#CC#Cc1ccco1 [VIII″, (E)-14-(furan-2-yl)tetradeca-9-en-11,13-diynoic acid]
IC50 (S. cerevisiae 2229-5C): 2.7 µg/mL (≈ 9.5 µM) | IC50 (S. cerevisiae AD1-9): 0.4 µg/mL (≈ 1.41 µM) | IC50 (C. albicans DSY1024): 0.004 µg/mL (≈ 0.0141 µM) | IC50 (C. albicans SC5314 [5]): 3 µg/mL (≈ 10.6 µM) | MIC (C. albicans SC5314 [2]): 0.15 µg/mL (≈ 0.528 µM)

O=C(O)CCCCC/C=C\C#CC#Cc1ccco1 [(Z)-12-(furan-2-yl)dodeca-7-en-9,11-diynoic acid]
IC50 (S. cerevisiae 2229-5C): ~50 µg/mL (≈ 195 µM) | IC50 (S. cerevisiae AD1-9): ~6.25 µg/mL (≈ 24.4 µM) | IC50 (C. albicans DSY1024): 1.8 µg/mL (≈ 7.02 µM) | IC50 (C. albicans SC5314 [5]): 50 µg/mL (≈ 195 µM)

Cc1cc(C#CC#C/C=C\CCCCCCCC(=O)O)oc1C [VI″, (Z)-14-(4,5-dimethylfuran-2-yl)tetradeca-9-en-11,13-diynoic acid]
MIC (C. albicans SC5314 [2]): > 10.2 µg/mL | MIC (C. tropicalis ATCC-750): > 10.2 µg/mL | MIC (C. albicans ATCC-90028): > 10.2 µg/mL | MIC [3]: > 10.2 µg/mL | MIC (C. krusei ATCC-6258): > 10.2 µg/mL | MIC [4]: > 10.2 µg/mL | MIC (C. glabrata ATCC-90030): > 10.2 µg/mL | MIC (C. albicans ATCC-24433): > 10.2 µg/mL

CC(=O)N1CCN(c2ccc(OCC3COC(Cn4ccnc4)(c4ccc(Cl)cc4Cl)O3)cc2)CC1 (stereo not drawn) [Ketoconazole]
Fungicidal Concentration (Candida albicans): >800,000 ng/ml | MIC90 (Candida albicans; 24 h, read-out: MIC90 24 h): 50 µg/mL (≈ 94.1 µM) | MIC90 (Candida albicans; 48 h, read-out: MIC90 48 h): > 800 µg/mL

CCCCCCCC/C=C\CCCCCCCC(=O)O [oleic acid, reference compound]
decrease of the expression level of OLE1 (OLE1): about 6 fold | Doubling time (S. cerevisiae): 2.0 h | Doubling time (S. cerevisiae; sodium salt): 2 h

COC(=O)CCCCCCC/C=C\C#CC#Cc1ccco1 [(Z)-methyl 14-(furan-2-yl)tetradeca-9-en-11,13-diynoate]
IC50 (S. cerevisiae 2229-5C): > 0.4 µg/mL | value in brackets after the IC50 bound (not explained) (S. cerevisiae 2229-5C): 4% | IC50 (S. cerevisiae AD1-9): > 0.4 µg/mL | value in brackets after the IC50 bound (not explained) (S. cerevisiae AD1-9; at the bound concentration): 6% | IC50 (C. albicans DSY1024): 0.19 µg/mL (≈ 0.637 µM) | IC50 (C. albicans SC5314 [5]): 0.4 µg/mL (≈ 1.34 µM)

O=C(O)CCCCCC/C=C\C#CC#Cc1ccco1 [(Z)-13-(furan-2-yl)trideca-8-en-10,12-diynoic acid]
IC50 (S. cerevisiae 2229-5C): > 200 µg/mL | value in brackets after the IC50 bound (not explained) (S. cerevisiae 2229-5C): 25% | IC50 (S. cerevisiae AD1-9): ~50 µg/mL (≈ 185 µM) | IC50 (C. albicans DSY1024): 0.5 µg/mL (≈ 1.85 µM) | IC50 (C. albicans SC5314 [5]): > 200 µg/mL

CCOC(=O)CCCCCCC/C=C\C#CC#Cc1ccco1 [(Z)-ethyl 14-(furan-2-yl)tetradeca-9-en-11,13-diynoate]
IC50 (S. cerevisiae 2229-5C): 8.9 µg/mL (≈ 28.5 µM) | IC50 (S. cerevisiae AD1-9): 0.7 µg/mL (≈ 2.24 µM) | IC50 (C. albicans SC5314 [5]): 9 µg/mL (≈ 28.8 µM)
